From patent US9717721B2, “Use of aryl-quinolin derivatives as inhibitors of vasculogenic mimicry” (TaiRx Inc., priority 2015, dated 2017)

Tests used:
[1] = tested on: C8161 aggressive melanoma cells; test: VM network formation in three-dimensional MATRIGEL, C8161 cells; format: cell-based, human; conditions: for VM network formation: all tested concentrations
Procedure: (§1) Aggressive human melanoma (C8161 or SK-MEL28; 1×10^5) cells were seeded into a three-dimensional polymerized MATRIGEL™ (75 μl) for VM network analysis. C8161 or SK-MEL28 cells were treated for 24 h with 0.5, 1, 5, 10, 25 or 50 or 100 nM of TRX-818 at 5 or 24 h after cell attachment. Another set of melanoma cells were seeded onto a plastic dish and treated for the same amount of time before the cell viability of C8161 or SK-MEL28 cells was determined using the Guava Nexin Assay (Millipore, USA).
The VM network image was taken using a confocal laser scanning microscope equipped with an environmental, chamber to track the response of cancer cells to the test compound. The images were then digitized and subsequently analyzed using the Angiosys software. Four images per sample were analyzed to quantify the number of junctions and total tubule length of VM formation. Changes were presented in percentage relative to the vehicle control. Sterile deionized water (tissue-culture grade) was used as the vehicle control.
(§2) Aggressive human melanoma (C8161, 7.5×10^4) cells were seeded as disclosed in Example 1. C8161 cells were treated tor 4 h or 24 h with 0.3, 1 or 5 nM of TRX-818M1. Another set of melanoma cells were seeded onto a plastic dish and treated for the same amount of time before the cell viability of C8161 cells was determined.

[2] = tested on: SK-MEL-28 aggressive human melanoma cells; test: Loss of pre-formed VM network in SK-MEL-28 cells on MATRIGEL; format: cell-based; conditions: 100 nM
Procedure: TRX-818 M1 (i.e., compound No. 38) structurally similar compounds were tested for their effect on inhibition of vasculogenic mimicry. Aggressive human melanoma (SK-MEL-28 from ATCC®; 7.5×10^4 mL medium) cells were seeded onto a three-dimensional polymerized MATRIGEL™-coated 24-well plate. After 18 h of cell seeding, VM network was formed. The medium was then replaced with negative controls (untreated and DMSO treated controls), a positive control (100 nM of TRX-818M1) or 100 nM of each testing compound.

[3] = tested on: HCT-116 orthotopic human colon cancer xenograft; test: HCT-116 orthotopic human colon cancer xenograft model; format: in vivo, mice; conditions: 50 mg/kg Q4D×3, i.p.
Procedure: The inhibitory effect of TRX-818 on tumor growth and VM formation of HCT-116, a highly metastatic colon tumor, was examined in a HCT-116 orthotopic xenograft model. The effect of TRX-818 was evaluated on the formation of the vascular or vascular-like (vasculogenic mimicry, VM) network by immunohistochemistry staining (IHC) in orthotopic xenograft human colon cancer model inoculated with HCT116 colon cancer cell lines
Six groups were set in this study (ten mice/group). There were: Group 1, TRX-818 at 20 mg/kg given as oral administration; Group 2, TRX-818 at 50 mg/kg given as oral administration; Group 3, TRX-818 at 100 mg/kg given as oral administration; Group 4, TRX-818 at 20 mg/kg given as intravenous injection; Group 5, Irinotecan at 50 mg/kg given as intraperitoneal injection; Group 6, vehicle group. Dose schedule for G1, G2, G3 and G6 was QD×28 and for G4 was QOD×7. Body weights were monitored for safety evaluation. Tumor size and tumor weight were measured at the end of in-life study. The percentage of tumor growth inhibition (TGI %) was calculated at the termination of the study for anti-tumor effect evaluation. The average body weight of study mice on Day 1 was ˜20 gram and decreased to ˜17-19 gram at the end of study (Day 42)
At the end of 28-day dosing, CO2 anesthesia (1 min) followed by cervical dislocation was used for mice euthanasia in the study prior to tumors and lungs excision. First, a ventral midline incision was made and colon with primary tumor was excised and collected. The tumor collection was completed in 3 minutes after euthanasia. The tissues were rinsed with PBS to remove the blood before fixation.
The number of channels with CD31^+/red blood cell (RBC)^+ or CD31^−/RBC^+ were counted on the whole section of each sample in each group, and the number of vessels with CD31 positive or negative staining were counted based on 5 light fields (200×) under microscope. The vascular network represented by the CD31^+/RBC^+ staining whereas the VM network represented by CD31^−/RBC^+ staining, because the VM formation is independent of vascular endothelial cells. The scoring was conducted by blinded, objective observer.

C8161 cells = test: Cell viability of C8161 cells (Guava Nexin Assay); format: cell-based; conditions: higher concentrations in the nM range
Procedure: as §1, §2

SMILES | concentration effective as vascular disrupting agent [1] | VM network formation [1] | loss of VM network compared to negative controls ([2]; 5 h post treatment) | loss of VM network compared to negative controls ([2]; 24 h post treatment) | Average number of channels (CD31−/RBC+, VM) in the whole tumor section per group, Mean ± SEM [3] | cell death (C8161 cells)
O=c1cc(-c2ccccc2F)[nH]c2cc3c(cc12)OCO3 [CHM-2133, 2-(2-fluorophenyl)-6,7-methylenedioxyquinolin-4-one] | ~0.3 nM | inhibited | – | – | – | –
COc1cc2c(cc1O)N=C(c1ccccc1F)CC2=O [Compound 43, 2-(2-Fluorophenyl)-7-hydroxy-6-methoxyquinolin-4-one] | – | – | mild loss of VM network | marked loss of VM network | – | –
COc1ccc2[nH]c(-c3cccc(F)c3)cc(=O)c2c1OP(=O)(O)O [Compound 52, 2-(3-Fluorophenyl)-6-methoxy-4-oxo-1,4-dihydroquinolin-5-yl dihydrogen phosphate] | – | – | mild loss of VM network | marked loss of VM network | – | –
O=c1cc(-c2cccc(OP(=O)(O)O)c2)[nH]c2ccc(N3CCCC3)cc12 [Compound 147, 3-(4-Oxo-6-(pyrrolidin-1-yl)-1,4-dihydroquinolin-2-yl)phenyl dihydrogen phosphate] | – | – | mild loss of VM network | marked loss of VM network | – | –
O=c1cc(-c2cccc(F)c2)[nH]c2cc3c(cc12)OCO3 [Compound A6] | – | – | mild loss of VM network | marked loss of VM network | – | –
O=c1cc(-c2cccc(Cl)c2)[nH]c2ccc3c(c12)OCO3 [Compound B1] | – | – | mild loss of VM network | marked loss of VM network | – | –
COc1cccc(-c2cc(=O)c3c(O)c(OC)ccc3[nH]2)c1 [Compound B3] | – | – | mild loss of VM network | marked loss of VM network | – | –
CN(C)c1ccc2[nH]c(-c3cc(O)cc(F)c3)cc(=O)c2c1 [Compound C4] | – | – | mild loss of VM network | marked loss of VM network | – | –
O=c1cc(-c2cc(O)cc(F)c2)[nH]c2ccc(N3CCCC3)cc12 [Compound C6] | – | – | mild loss of VM network | marked loss of VM network | – | –
CCc1c2c(nc3ccc(OC(=O)N4CCC(N5CCCCC5)CC4)cc13)-c1cc3c(c(=O)n1C2)COC(=O)[C@]3(O)CC [Irinotecan, reference compound] | – | – | – | – | 1.1 ± 0.4 | –
COc1ccc2[nH]c(-c3cccc(F)c3)cc(=O)c2c1O [TRX-818M1, 2-(3-Fluorophenyl)-5-hydroxy-6-methoxyquinolin-4-one] | ~0.3 nM | inhibited | mild loss of VM network | marked loss of VM network | – | induced cell death
